In the supplement of paper PMC10307832:

Key:
Test in all cases: relative viability (nuclei count vs DMSO), 5 days (fraction); higher = more cells survive
[1] = compound: CN[C@@H]1C[C@H]2O[C@@](C)([C@@H]1OC)n1c3ccccc3c3c4c(c5c6ccccc6n2c5c31)C(=O)NC4 [Staurosporine] + CC(C)C[C@H](NC(=O)[C@H](Cc1ccccc1)NC(=O)c1cnccn1)B(O)O [Bortezomib] (partner 0.002 µM)
Procedure, shortened: (§1)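 One day after seeding in 1536-well plates, lung cancer cell lines were dosed by pin tool. Dosing was either single-drug or a fixed anchor-drug dose plus five library-drug doses (not always all listed) in √10 steps. After 5 days, nuclei were stained in one fix-and-stain step and counted on 4× images, and relative viability is the nuclei count of treated wells over that of vehicle wells, given as the median of duplicate plates.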

[2] = compound: CN[C@@H]1C[C@H]2O[C@@](C)([C@@H]1OC)n1c3ccccc3c3c4c(c5c6ccccc6n2c5c31)C(=O)NC4 [Staurosporine] + COc1cc2c(Oc3ccc(NC(=O)C4(C(=O)Nc5ccc(F)cc5)CC4)cc3F)ccnc2cc1OCCCN1CCOCC1 [Foretinib] (partner 0.25 µM)
Procedure, shortened: as §1

Sulindac + Decitabine = compound: CC1=C(CC(=O)O)c2cc(F)ccc2/C1=C\c1ccc([S+](C)[O-])cc1 [Sulindac] + Nc1ncn([C@H]2C[C@H](O)[C@@H](CO)O2)c(=O)n1 [Decitabine] (partner 2 µM)
Procedure, shortened: as §1

Cell Line | relative viability ([1]; first compound 0.005 µM) | relative viability ([1]; first compound 0.01581 µM) | relative viability ([1]; first compound 0.05 µM) | relative viability ([1]; first compound 0.1581 µM) | relative viability ([1]; first compound 0.5 µM) | relative viability ([2]; first compound 0.005 µM) | relative viability ([2]; first compound 0.01581 µM) | relative viability ([2]; first compound 0.05 µM) | relative viability ([2]; first compound 0.1581 µM) | relative viability ([2]; first compound 0.5 µM) | relative viability (Sulindac + Decitabine; first compound 0.08 µM) | relative viability (Sulindac + Decitabine; first compound 0.253 µM) | relative viability (Sulindac + Decitabine; first compound 0.8 µM) | relative viability (Sulindac + Decitabine; first compound 2.53 µM) | relative viability (Sulindac + Decitabine; first compound 8 µM)
NCI-H661 | 0.716 | 0.453 | 0.341 | 0.275 | 0.228 | 1.13 | 0.571 | 0.481 | 0.27 | 0.216 | 0.648 | 0.544 | 0.523 | 0.574 | 0.609
NCI-H1975 | 0.22 | 0.144 | 0.143 | 0.129 |  | 0.4 | 0.349 | 0.21 | 0.104 | 0.0901 | 0.594 | 0.413 | 0.352 | 0.394 | 0.36
NCI-H1755 | 0.788 | 0.364 | 0.251 | 0.171 | 0.157 | 0.729 | 0.471 | 0.261 | 0.189 | 0.164 | 0.798 | 0.634 | 0.705 | 0.785 | 0.833
NCI-H2009 | 0.278 | 0.147 | 0.165 | 0.0953 | 0.0887 | 0.527 | 0.389 | 0.212 | 0.177 | 0.127 | 0.455 | 0.397 | 0.371 | 0.362 | 0.359
HCC-78 | 0.483 | 0.388 | 0.256 | 0.404 | 0.332 | 0.537 | 0.459 | 0.429 | 0.486 |  | 0.652 | 0.672 | 0.597 | 0.653 | 0.648
NCI-H3122 | 1.04 | 0.355 | 0.947 | 0.821 | 0.362 | 1.03 |  | 0.76 | 0.695 | 0.371 | 0.409 | 0.385 | 0.352 | 0.435 | 0.439
HOP-62 | 0.976 | 0.495 | 0.186 | 0.0948 | 0.0922 | 0.801 | 0.233 | 0.142 | 0.125 | 0.119 | 0.214 | 0.222 | 0.229 | 0.217 | 0.246
NCI-H727 | 0.703 | 0.354 | 0.345 | 0.352 | 0.158 | 0.652 | 0.542 | 0.428 | 0.37 | 0.29 | 0.965 | 1.02 | 0.874 | 0.866 | 0.957
BEN | 0.698 | 0.528 |  | 0.253 | 0.163 | 0.688 | 0.418 | 0.248 | 0.221 | 0.187 | 0.745 | 0.845 | 0.697 | 0.685 | 0.814
NCI-H460 | 1.08 | 0.733 | 0.463 | 0.0074 | 0.0085 | 0.972 | 0.85 | 0.755 | 0.161 | 0.013 | 0.745 | 0.536 | 0.438 | 0.435 | 0.601
ChaGo-K-1 | 0.992 |  | 0.86 | 0.243 | 0.222 | 0.881 | 0.528 | 0.676 | 0.223 | 0.188 | 0.601 | 0.484 | 0.466 | 0.515 | 0.523
NCI-H2085 | 0.856 | 0.565 | 0.604 | 0.499 | 0.402 | 0.516 | 0.437 | 0.324 | 0.195 | 0.26 | 0.497 | 0.556 | 0.545 | 0.525 | 0.5
LC-2-ad | 0.973 | 0.096 | 0.508 | 0.0851 | 0.0564 | 0.845 | 0.537 | 0.236 | 0.175 | 0.169 | 0.954 | 0.945 | 0.57 | 0.823 | 0.9
201T | 1.13 | 1.1 | 1.04 | 0.911 | 0.747 | 0.881 | 0.896 | 0.518 | 0.314 | 0.159 | 0.879 | 0.874 | 0.818 | 0.848 | 0.928
NCI-H2023 | 0.612 | 0.19 | 0.181 | 0.0797 | 0.0526 | 0.526 |  | 0.174 | 0.107 | 0.0611 | 0.233 | 0.234 | 0.203 | 0.206 | 0.254
NCI-H23 | 0.975 | 0.215 | 0.259 | 0.155 | 0.107 | 0.898 |  | 0.43 | 0.258 | 0.387 | 0.298 | 0.331 | 0.319 | 0.324 | 0.319
LU99A | 0.985 | 0.389 | 0.318 | 0.271 | 0.172 | 0.739 | 0.505 | 0.342 | 0.264 | 0.219 | 1.05 | 0.806 | 0.86 | 0.782 | 1.17
NCI-H1437 | 0.356 | 0.167 | 0.294 | 0.0975 | 0.0786 | 1.13 |  | 0.854 | 0.58 | 0.169 | 0.667 | 0.619 | 0.547 | 0.591 | 0.568
EKVX | 0.351 | 0.234 | 0.262 |  | 0.125 | 0.355 | 0.133 | 0.379 | 0.246 | 0.123 | 0.312 | 0.316 | 0.305 | 0.341 | 0.352
ABC-1 | 0.264 | 0.232 | 0.247 | 0.187 | 0.185 | 0.394 | 0.367 | 0.249 | 0.269 | 0.151 | 1.04 | 1.09 | 1.02 | 0.821 | 1.16
NCI-H647 | 0.532 | 0.164 | 0.285 | 0.0743 | 0.0533 | 0.886 | 0.709 | 0.535 | 0.143 | 0.0766 | 0.392 | 0.51 | 0.361 | 0.442 | 0.426
NCI-H1734 | 0.741 | 0.316 | 0.251 | 0.127 |  | 0.577 | 0.453 | 0.317 | 0.137 | 0.156 | 0.524 | 0.522 | 0.435 | 0.523 | 0.496
LCLC-97TM1 | 0.164 | 0.158 | 0.219 | 0.151 | 0.0852 | 0.988 | 0.558 | 0.454 | 0.382 | 0.461 | 0.208 | 0.263 | 0.225 | 0.247 | 0.232
NCI-H322M | 1.3 | 1.14 | 0.993 | 0.78 | 0.742 | 0.95 | 0.759 | 0.536 | 0.357 | 0.288 | 0.599 | 0.614 | 0.657 | 0.631 | 0.699
RERF-LC-KJ | 1.15 | 0.926 | 0.674 | 0.322 | 0.242 | 0.876 | 0.824 | 0.702 | 0.491 | 0.191 | 0.667 | 0.706 | 0.608 | 0.63 | 0.751
EPLC-272H | 1.01 | 0.195 | 0.447 | 0.181 | 0.126 | 0.608 | 0.136 | 0.174 | 0.0912 | 0.121 | 0.313 |  | 0.301 | 0.369 | 0.428
A-427 | 1.02 | 0.87 | 0.367 | 0.131 | 0.133 | 1.06 | 0.78 | 0.282 | 0.198 | 0.121 | 0.469 | 0.521 | 0.552 | 0.52 | 0.6
